Patent US8846933B2, “N-link hydroxamic acid derivatives useful as antibacterial agents” (Pfizer Inc., priority 2009, dated 2014)

Legend:
[1] = system: Pseudomonas aeruginosa UI-18: Wild-type (PA-7); assay: MIC determination (CLSI), strain PA-7; type: cell-based; details: strain PA-7; generated in the same manner as in Table 4; unit assumed
Protocol: (§1) The in vitro antibacterial activity of compounds described in the Examples was evaluated by minimum inhibitory concentration (MIC) testing according to Clinical and Laboratory Standards Institute (CLSI, formerly NCCLS) guidelines. See: Clinical and Laboratory Standards Institute. Methods for Dilution Antimicrobial Susceptibility Tests for Bacteria that Grow Aerobically; Approved Standard-Seventh Edition. CLSI document M7-A7 [ISBN 1-56238-587-9]. Clinical and Laboratory Standards Institute, 940 West Valley Road, Suite 1400, Wayne, Pa. 19087-1898 USA, 2006; also Clinical and Laboratory Standards Institute. Performance Standards for Antimicrobial Susceptibility Testing; Eighteenth Informational Supplement. CLSI document M100-S18 [ISBN1-56238-653-0].Clinical and Laboratory Standards Institute.
(§2) The following bacterial strains were used in these MIC determinations:
1) Pseudomonas aeruginosa UI-18: Wild-type, labeled as PA-7 in Tables 4, and 5;

[2] = system: Escherichia coli EC-1: VOGEL, mouse virulent; assay: MIC determination (CLSI), strain EC-1; type: cell-based; details: strain EC-1; generated in the same manner as in Table 4; unit assumed
Protocol: as §1, §2
3) Escherichia coli EC-1: VOGEL, mouse virulent labeled as EC-1 in Tables 4 and 5;

SMILES | PA-7 (MIC) [1] | EC-1 (MIC) [2]
CCN(CC)C(=O)c1ccc(-c2ccn(CCC(C)(C(=O)NO)S(C)(=O)=O)c(=O)c2)cc1 (stereo not drawn) [Example 126, N,N-diethyl-4-{1-[4-(hydroxyamino)-3-methyl-3-(methylsulfonyl)-4-oxobutyl]-2-oxo-1,2-dihydropyridin-4-yl}benzamide] | > 64 µg/mL | > 64 µg/mL
CC(=O)c1cccc(-c2ccn(CCC(C)(C(=O)NO)S(C)(=O)=O)c(=O)c2)c1 (stereo not drawn) [Example 127, 4-[4-(3-acetylphenyl)-2-oxopyridin-1(2H)-yl]-N-hydroxy-2-methyl-2-(methylsulfonyl)butanamide] | 32 µg/mL | 16 µg/mL
CC(CCn1ccc(-c2cc3nccc(Cl)c3s2)cc1=O)(C(=O)NO)S(C)(=O)=O (stereo not drawn) [Example 128, 4-[4-(7-chlorothieno[3,2-b]pyridin-2-yl)-2-oxopyridin-1(2H)-yl]-N-hydroxy-2-methyl-2-(methylsulfonyl)butanamide] | 64 µg/mL | 32 µg/mL
CC(CCn1ccc(-c2ccc(CC#N)cc2)cc1=O)(C(=O)NO)S(C)(=O)=O (stereo not drawn) [Example 129, 4-{4-[4-(cyanomethyl)phenyl]-2-oxopyridin-1(2H)-yl}-N-hydroxy-2-methyl-2-(methylsulfonyl)butanamide] | 32 µg/mL | 2 µg/mL
CC(CCn1ccc(-c2cc(F)c(F)c(F)c2)cc1=O)(C(=O)NO)S(C)(=O)=O (stereo not drawn) [Example 130, N-hydroxy-2-methyl-2-(methylsulfonyl)-4-[2-oxo-4-(3,4,5-trifluorophenyl)pyridin-1(2H)-yl]butanamide] | 8 µg/mL | 16 µg/mL
CC(CCn1ccc(-c2ccccc2OCC(F)(F)F)cc1=O)(C(=O)NO)S(C)(=O)=O (stereo not drawn) [Example 131, N-hydroxy-2-methyl-2-(methylsulfonyl)-4-{2-oxo-4-[2-(2,2,2-trifluoroethoxy)phenyl]pyridin-1(2H)-yl}butanamide] | > 64 µg/mL | > 64 µg/mL
CC(CCn1ccc(-c2ccccc2C#N)cc1=O)(C(=O)NO)S(C)(=O)=O (stereo not drawn) [Example 132, 4-[4-(2-cyanophenyl)-2-oxopyridin-1(2H)-yl]-N-hydroxy-2-methyl-2-(methylsulfonyl)butanamide] | > 64 µg/mL | > 64 µg/mL
CC(=O)Nc1cccc(-c2ccn(CCC(C)(C(=O)NO)S(C)(=O)=O)c(=O)c2)c1 (stereo not drawn) [Example 133, 4-[4-(3-acetamidophenyl)-2-oxopyridin-1(2H)-yl]-N-hydroxy-2-methyl-2-(methylsulfonyl)butanamide] | > 64 µg/mL | > 64 µg/mL
CC(CCn1ccc(-c2ccc(F)c(F)c2)cc1=O)(C(=O)NO)S(C)(=O)=O (stereo not drawn) [Example 134, 4-[4-(3,4-difluorophenyl)-2-oxopyridin-1(2H)-yl]-N-hydroxy-2-methyl-2-(methylsulfonyl)butanamide] | 4 µg/mL | 4 µg/mL
CC(CCn1ccc(-c2ccc(Cl)c(C#N)c2)cc1=O)(C(=O)NO)S(C)(=O)=O (stereo not drawn) [Example 135, 4-[4-(4-chloro-3-cyanophenyl)-2-oxopyridin-1(2H)-yl]-N-hydroxy-2-methyl-2-(methylsulfonyl)butanamide] | 16 µg/mL | 16 µg/mL
CCS(=O)(=O)c1ccc(-c2ccn(CCC(C)(C(=O)NO)S(C)(=O)=O)c(=O)c2)cc1 (stereo not drawn) [Example 136, 4-{4-[4-(ethylsulfonyl)phenyl]-2-oxopyridin-1(2H)-yl}-N-hydroxy-2-methyl-2-(methylsulfonyl)butanamide] | 64 µg/mL | > 64 µg/mL
CC(CCn1ccc(-c2cc(F)ccc2OC(F)(F)F)cc1=O)(C(=O)NO)S(C)(=O)=O (stereo not drawn) [Example 137, 4-{4-[5-fluoro-2-(trifluoromethoxy)phenyl]-2-oxopyridin-1(2H)-yl}-N-hydroxy-2-methyl-2-(methylsulfonyl)butanamide] | > 64 µg/mL | > 64 µg/mL
COc1ccc(-c2ccn(CCC(C)(C(=O)NO)S(C)(=O)=O)c(=O)c2)cc1OC (stereo not drawn) [Example 138, 4-[4-(3,4-dimethoxyphenyl)-2-oxopyridin-1(2H)-yl]-N-hydroxy-2-methyl-2-(methylsulfonyl)butanamide] | 64 µg/mL | 64 µg/mL
COc1ccc(Oc2ccc(-c3ccn(CCC(C)(C(=O)NO)S(C)(=O)=O)c(=O)c3)cc2)cc1 (stereo not drawn) [Example 139, N-hydroxy-4-{4-[4-(4-methoxyphenoxy)phenyl]-2-oxopyridin-1(2H)-yl}-2-methyl-2-(methylsulfonyl)butanamide] | 8 µg/mL | 0.125 µg/mL
CC(=O)c1ccccc1-c1ccn(CCC(C)(C(=O)NO)S(C)(=O)=O)c(=O)c1 (stereo not drawn) [Example 140, 4-[4-(2-acetylphenyl)-2-oxopyridin-1(2H)-yl]-N-hydroxy-2-methyl-2-(methylsulfonyl)butanamide] | > 64 µg/mL | > 64 µg/mL
CC(CCn1ccc(-c2ccc(Cl)cc2)cc1=O)(C(=O)NO)S(C)(=O)=O (stereo not drawn) [Example 141, 4-[4-(4-chlorophenyl)-2-oxopyridin-1(2H)-yl]-N-hydroxy-2-methyl-2-(methylsulfonyl)butanamide] | 1 µg/mL | 1 µg/mL
CC(CCn1ccc(-c2ccc(Cl)c(F)c2)cc1=O)(C(=O)NO)S(C)(=O)=O (stereo not drawn) [Example 142, 4-[4-(4-chloro-3-fluorophenyl)-2-oxopyridin-1(2H)-yl]-N-hydroxy-2-methyl-2-(methylsulfonyl)butanamide] | 1 µg/mL | 1 µg/mL
CC(CCn1ccc(-c2cccc(C(F)(F)F)c2)cc1=O)(C(=O)NO)S(C)(=O)=O (stereo not drawn) [Example 143, N-hydroxy-2-methyl-2-(methylsulfonyl)-4-{2-oxo-4-[3-(trifluoromethyl)phenyl]pyridin-1(2H)-yl}butanamide] | 8 µg/mL | 4 µg/mL
CC(CCn1ccc(-c2cccc(CO)c2)cc1=O)(C(=O)NO)S(C)(=O)=O (stereo not drawn) [Example 144, N-hydroxy-4-{4-[3-(hydroxymethyl)phenyl]-2-oxopyridin-1(2H)-yl}-2-methyl-2-(methylsulfonyl)butanamide] | > 64 µg/mL | > 64 µg/mL
CC(CCn1ccc(-c2ccc(OC(F)(F)F)cc2)cc1=O)(C(=O)NO)S(C)(=O)=O (stereo not drawn) [Example 145, N-hydroxy-2-methyl-2-(methylsulfonyl)-4-{2-oxo-4-[4-(trifluoromethoxy)phenyl]pyridin-1(2H)-yl}butanamide] | 2 µg/mL | 1 µg/mL
CC(C)NC(=O)c1ccc(-c2ccn(CCC(C)(C(=O)NO)S(C)(=O)=O)c(=O)c2)cc1 (stereo not drawn) [Example 146, 4-{1-[4-(hydroxyamino)-3-methyl-3-(methylsulfonyl)-4-oxobutyl]-2-oxo-1,2-dihydropyridin-4-yl}-N-isopropylbenzamide] | > 64 µg/mL | > 64 µg/mL
CC(CCn1ccc(-c2cccc(F)c2F)cc1=O)(C(=O)NO)S(C)(=O)=O (stereo not drawn) [Example 147, 4-[4-(2,3-difluorophenyl)-2-oxopyridin-1(2H)-yl]-N-hydroxy-2-methyl-2-(methylsulfonyl)butanamide] | 1 µg/mL | 2 µg/mL
CN(C)S(=O)(=O)c1cccc(-c2ccn(CCC(C)(C(=O)NO)S(C)(=O)=O)c(=O)c2)c1 (stereo not drawn) [Example 148, 4-[4-{3-[(dimethylamino)sulfonyl]phenyl}-2-oxopyridin-1(2H)-yl]-N-hydroxy-2-methyl-2-(methylsulfonyl)butanamide] | > 64 µg/mL | 64 µg/mL
CC(CCn1ccc(-c2ccc(C#N)s2)cc1=O)(C(=O)NO)S(C)(=O)=O (stereo not drawn) [Example 149, 4-[4-(5-cyano-2-thienyl)-2-oxopyridin-1(2H)-yl]-N-hydroxy-2-methyl-2-(methylsulfonyl)butanamide] | 16 µg/mL | 16 µg/mL
CC(CCn1ccc(-c2cc(Cl)ccc2F)cc1=O)(C(=O)NO)S(C)(=O)=O (stereo not drawn) [Example 150, 4-[4-(5-chloro-2-fluorophenyl)-2-oxopyridin-1(2H)-yl]-N-hydroxy-2-methyl-2-(methylsulfonyl)butanamide] | 4 µg/mL | 4 µg/mL
Cc1ccc(-c2ccn(CCC(C)(C(=O)NO)S(C)(=O)=O)c(=O)c2)cc1F (stereo not drawn) [Example 151, 4-[4-(3-fluoro-4-methylphenyl)-2-oxopyridin-1(2H)-yl]-N-hydroxy-2-methyl-2-(methylsulfonyl)butanamide] | 2 µg/mL | 2 µg/mL
CCCn1cc(-c2ccn(CCC(C)(C(=O)NO)S(C)(=O)=O)c(=O)c2)cn1 (stereo not drawn) [Example 152, N-hydroxy-2-methyl-2-(methylsulfonyl)-4-[2-oxo-4-(1-propyl-1H-pyrazol-4-yl)pyridin-1(2H)-yl]butanamide] | > 64 µg/mL | > 64 µg/mL
Cc1c(F)cccc1-c1ccn(CCC(C)(C(=O)NO)S(C)(=O)=O)c(=O)c1 (stereo not drawn) [Example 153, 4-[4-(3-fluoro-2-methylphenyl)-2-oxopyridin-1(2H)-yl]-N-hydroxy-2-methyl-2-(methylsulfonyl)butanamide] | 8 µg/mL | 32 µg/mL
CC(C)(C)NC(=O)c1cncc(-c2ccn(CCC(C)(C(=O)NO)S(C)(=O)=O)c(=O)c2)c1 (stereo not drawn) [Example 154, N-tert-butyl-1′-[4-(hydroxyamino)-3-methyl-3-(methylsulfonyl)-4-oxobutyl]-2′-oxo-1′,2′-dihydro-3,4′-bipyridine-5-carboxamide] | > 64 µg/mL | > 64 µg/mL
CC(CCn1ccc(-c2ccc(F)cc2Cl)cc1=O)(C(=O)NO)S(C)(=O)=O (stereo not drawn) [Example 155, 4-[4-(2-chloro-4-fluorophenyl)-2-oxopyridin-1(2H)-yl]-N-hydroxy-2-methyl-2-(methylsulfonyl)butanamide] | 0.5 µg/mL | 4 µg/mL
